From paper PMC3623961, “A Comparative Study of Interaction of Tetracycline with Several Proteins Using Time Resolved Anisotropy, Phosphorescence, Docking and FRET” (PLoS ONE, 2013)
Where a name gives a salt, the structure may show the parent alone.

Tests used:
[1] = molecular target: T1, Bovine serum albumin (BSA) (Bos taurus, UniProt P02769); experiment: fluorescence enhancement of bound tetracycline, modified Benesi-Hildebrand; conditions: read-out: Binding Constant (M^-1) (converted)
T1 construct: gene ALB; mature serum albumin, 17 disulfides, Trp134 and Trp213; purchased from Sigma-Aldrich
T1 sequence (P02769 25-607): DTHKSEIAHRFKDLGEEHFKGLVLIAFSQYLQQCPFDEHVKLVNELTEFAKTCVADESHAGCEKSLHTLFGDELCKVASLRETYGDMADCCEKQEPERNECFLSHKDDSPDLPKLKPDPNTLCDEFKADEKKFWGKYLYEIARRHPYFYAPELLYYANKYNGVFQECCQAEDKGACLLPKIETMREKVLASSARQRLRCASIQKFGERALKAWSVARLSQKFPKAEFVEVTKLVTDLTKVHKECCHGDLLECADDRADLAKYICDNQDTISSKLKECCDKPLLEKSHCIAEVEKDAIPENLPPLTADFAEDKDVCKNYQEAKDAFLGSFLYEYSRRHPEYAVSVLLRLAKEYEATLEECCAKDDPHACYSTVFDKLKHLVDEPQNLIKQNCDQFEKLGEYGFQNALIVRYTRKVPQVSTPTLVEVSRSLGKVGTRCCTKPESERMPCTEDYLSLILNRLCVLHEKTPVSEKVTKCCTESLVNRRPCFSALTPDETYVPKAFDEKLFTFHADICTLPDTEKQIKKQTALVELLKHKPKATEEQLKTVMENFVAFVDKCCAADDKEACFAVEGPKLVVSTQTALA
Description: fluorescence enhancement of bound tetracycline, modified Benesi-Hildebrand on Bovine serum albumin (BSA)

[2] = molecular target: T2, Human serum albumin (HSA) (Homo sapiens, UniProt P02768); experiment: as above; conditions: read-out: Binding Constant (M^-1) (converted)
T2 construct: gene ALB; mature serum albumin, 585 amino acids, 17 disulfides, single Trp214; purchased from Sigma-Aldrich
T2 sequence (P02768 25-609): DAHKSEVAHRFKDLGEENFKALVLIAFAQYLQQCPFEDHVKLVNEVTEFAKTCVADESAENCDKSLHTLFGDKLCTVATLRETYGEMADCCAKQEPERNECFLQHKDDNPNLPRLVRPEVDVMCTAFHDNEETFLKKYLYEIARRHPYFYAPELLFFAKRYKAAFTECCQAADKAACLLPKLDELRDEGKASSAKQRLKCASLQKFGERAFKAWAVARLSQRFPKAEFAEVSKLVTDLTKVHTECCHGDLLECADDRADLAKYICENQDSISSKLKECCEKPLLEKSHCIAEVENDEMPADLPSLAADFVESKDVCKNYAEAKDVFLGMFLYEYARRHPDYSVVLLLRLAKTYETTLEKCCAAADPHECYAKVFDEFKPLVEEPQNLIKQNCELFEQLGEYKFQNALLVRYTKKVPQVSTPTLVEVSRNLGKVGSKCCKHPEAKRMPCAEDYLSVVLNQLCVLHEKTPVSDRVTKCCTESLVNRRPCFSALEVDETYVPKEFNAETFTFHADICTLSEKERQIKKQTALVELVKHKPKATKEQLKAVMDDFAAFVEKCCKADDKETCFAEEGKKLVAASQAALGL
Description: fluorescence enhancement of bound tetracycline, modified Benesi-Hildebrand on Human serum albumin (HSA)

Kd [1]: 21.2 µM | Kd [2]: 31.8 µM
SMILES: CN(C)[C@@H]1C(O)=C(C(N)=O)C(=O)[C@@]2(O)C(O)=C3C(=O)c4c(O)cccc4[C@@](C)(O)[C@H]3C[C@@H]12 [Tetracycline hydrochloride]
